Data reported in patent US8993585B2, “Cyclic amine substituted pyrimidinediamines as PKC inhibitors” (Rigel Pharmaceuticals, Inc., priority 2007, dated 2015).

Test system: Human primary T cells
Assay: IL-2 ELISA, Human Primary T Cell, Anti-CD3+CD28+ (Example 3)
Assay type: cell-based
Conditions: anti-CD3+CD28 stimulation
Summary of the method: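 Human primary T cells, 100,000 per well, were pre-incubated with compound in Yssel's medium for 1 h at 37 °C. The counter-assay used 0.5 ng/ml PMA with 0.1 uM ionomycin final.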

Row | SMILES | IC50 (24 hours) [nM] | IC50 (Homo sapiens, T-cell, 24 h) [nM]
1 | CN1CCN(c2ccc(Nc3ncc(F)c(N(C)C4CC(C)(C)N(C)C(C)(C)C4)n3)cc2Cl)CC1 [Compound I-60] | 524 | –
2 | CCN1CCN(c2ccc(Nc3ncc(C)c(NC4CC(C)(C)N(C)C(C)(C)C4)n3)cc2C)CC1 [Compound I-18] | 9440 | –
3 | Cc1ccc(C)n1-c1cc(Nc2ncc(F)c(NC3CC(C)(C)N(C)C(C)(C)C3)n2)ccc1OCCN1CCOCC1 [Compound I-439] | – | 620
4 | CN1C(C)(C)CC(Nc2nc(Nc3ccc4c(n3)NCCO4)ncc2F)CC1(C)C [II-24] | – | 11300
5 | CCN1C(=O)C(C)(C)S(=O)(=O)c2cc(Nc3ncc(F)c(NC4CC(C)(C)N(C)C(C)(C)C4)n3)ccc21 [II-66] | 695 | –
6 | CN1C(C)(C)CC(Nc2nc(Nc3ccc(-c4ccc(N5CCOCC5)nc4)c(C#N)c3)ncc2F)CC1(C)C [Compound I-427] | – | 660
7 | CCCN1C(=O)COc2cc(Nc3ncc(C#N)c(NC4CC(C)(C)N(C)C(C)(C)C4)n3)ccc21 [II-72] | – | 168
8 | CC1(C)CC(Nc2nc(Nc3cc(O)cc(O)c3)ncc2F)CC(C)(C)N1 [Compound I-383] | 30000 | –
9 | CN(c1nc(Nc2cccc(C#N)c2)ncc1F)C1CC(C)(C)N(C)C(C)(C)C1 [Compound I-66] | 1460 | –
10 | CCN1C(=O)C2(CCC2)Oc2cc(Nc3ncc(F)c(NC4CC(C)(C)N(C)C(C)(C)C4)n3)ccc21 [II-69] | 164 | –
11 | COc1ccc(Nc2ncc(F)c(NC3CC(C)(C)N(C)C(C)(C)C3)n2)cc1OCC(=O)NC1CC1 [Compound I-412] | 6550 | –
12 | COc1cc(Nc2ncc(F)c(NC3CC(C)(C)NC(C)(C)C3)n2)cc(OCCN2CCOCC2)c1 [Compound I-432] | – | 1530
13 | CNC(=O)COc1cccc(Nc2ncc(F)c(NC3CC(C)(C)N(C)C(C)(C)C3)n2)c1 [Compound I-136] | 1550 | –
14 | CN1C(C)(C)CC(Nc2nc(Nc3ccc(S(=O)(=O)N4CCNCC4)c(Cl)c3)ncc2F)CC1(C)C [Compound I-46] | 14300 | –
15 | Cc1cc(C)cc(Nc2ncc(C)c(NC3CC(C)(C)N(C)C(C)(C)C3)n2)c1 [Compound I-17] | 963 | –
16 | COCCOc1cc(Nc2ncc(F)c(NC3CC(C)(C)N(C)C(C)(C)C3)n2)cc(OCCOC)c1 [Compound I-385] | 1180 | –

Row | SMILES | IC50 (24 hours) [nM] | IC50 (Homo sapiens, T-cell, 24 h) [nM]
17 | C#Cc1cnc(Nc2ccc3c(c2)OCCO3)nc1NC1CC(C)(C)N(C)C(C)(C)C1 [II-156] | – | 5930
18 | COc1ccc(Nc2ncc(F)c(N(Cc3ccccc3)C3CC(C)(C)N(C)C(C)(C)C3)n2)cc1OC(F)F [Compound I-309] | – | 642
19 | CN1C(C)(C)CC(Nc2nc(Nc3ccc(F)c(-c4cccnc4)c3)ncc2F)CC1(C)C [Compound I-180] | 914 | –
20 | CN1CCN(Cc2ccc(Nc3ncc(F)c(NC4CC(C)(C)N(C)C(C)(C)C4)n3)cc2Cl)CC1 [Compound I-57] | 364 | –
21 | Cc1ccc(Nc2ncc(C)c(NC3CC(C)(C)N(C)C(C)(C)C3)n2)cc1S(N)(=O)=O [Compound I-15] | 6850 | –
22 | Cc1ccc(C)n1-c1cc(Nc2ncc(F)c(NC3CC(C)(C)NC(C)(C)C3)n2)ccc1OCCN1CCCC1 [Compound I-442] | – | 1770
23 | CN1C(C)(C)CC(Nc2nc(Nc3ccc(N4CCOCC4)c(Cl)c3)ncc2F)CC1(C)C [Compound I-335] | 563 | –
24 | CC(C)n1c(=O)oc2cc(Nc3ncc(C#N)c(NC4CC(C)(C)N(C)C(C)(C)C4)n3)ccc21 [II-70] | – | 327
25 | CN1C(C)(C)CC(Nc2nc(Nc3ccc4c(c3)OC(C)(C)C(=O)N4)ncc2F)CC1(C)C [II-33] | 407 | –
26 | COc1cc(Nc2ncc(C(N)=O)c(NC3CC(C)(C)NC(C)(C)C3)n2)cc(-n2cnnn2)c1 [Compound I-389] | 5420 | –
27 | CN1C(C)(C)CC(Nc2nc(Nc3ccc4c(cnn4C)c3)ncc2F)CC1(C)C [II-39] | – | 967
28 | CN1C(=O)CCc2cc(Nc3ncc(F)c(NC4CC(C)(C)N(C)C(C)(C)C4)n3)ccc21 [II-4] | – | 1720
29 | COc1ccc(Nc2ncc(F)c(NC3CC(C)(C)N(C)C(C)(C)C3)n2)cn1 [Compound I-345] | – | 5320
30 | CSc1nnnn1-c1cccc(Nc2ncc(C(N)=O)c(NC3CC(C)(C)NC(C)(C)C3)n2)c1 [Compound I-457] | 1670 | –
31 | COc1ccc(Nc2ncc(F)c(NC3CC(C)(C)N(C)C(C)(C)C3)n2)cc1-c1cnn(C)c1 [Compound I-184] | 2290 | –
